Source: patent US6762170B1, “2-(purin-9-yl)-tetrahydrofuran-3,4-diol derivatives” (SmithKlineBeecham Corporation, priority 1998, dated 2004)
Counter-ions that a name gives are not always drawn.

Legend:
Type in all cases: cell-based
Adenosine 3 receptor = biological target: T1, Adenosine 3 receptor (Homo sapiens, UniProt P0DMS8); assay: Agonist activity against adenosine 3 receptor subtype (CHO cells, forskolin-enhanced cAMP, SPAP reporter); details: EC50 ratio to NECA; transfected CHO cells, forskolin-enhanced cAMP reflected by SPAP
T1 construct: expressed in transfected cells; host or cells: Chinese hamster ovary (CHO) cells, co-transfected with a CRE-SPAP reporter
T1 sequence (P0DMS8 1-318): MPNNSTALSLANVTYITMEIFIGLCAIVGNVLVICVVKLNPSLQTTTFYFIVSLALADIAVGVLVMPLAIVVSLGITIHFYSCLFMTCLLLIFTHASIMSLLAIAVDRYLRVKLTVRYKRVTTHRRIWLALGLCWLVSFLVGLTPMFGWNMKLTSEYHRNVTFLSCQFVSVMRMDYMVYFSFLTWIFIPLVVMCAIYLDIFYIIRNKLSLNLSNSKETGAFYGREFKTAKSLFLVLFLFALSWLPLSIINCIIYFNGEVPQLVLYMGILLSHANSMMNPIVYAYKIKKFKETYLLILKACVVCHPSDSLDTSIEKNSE
Description: (§1) (1) Agonist Activity Against Adenosine 2a, Adenosine 1 and Adenosine 3 Receptor Subtypes.
(§2) Agonist selectivity of compounds against other human adenosine receptors is determined using Chinese hamster ovary (CHO) cells transfected with the gene for the relevant human adenosine receptor following a method based on that of Castanon and Spevak, 1994. The CHO cells are also transfected with cyclic AMP response elements promoting the gene for secreted placental alkaline phosphatase (SPAP) (Wood, 1995). The effect of test compounds may be determined by their effects on basal levels of cAMP (A2a) or on forskolin-enhanced cAMP (A1 and A3) as reflected by changes in levels of SPAP. EC50 values for compounds may then be determined as a ratio to that of the non-selective agonist N-ethyl carboxamide adenosine (NECA).
(§3) Values given in the Table are EC50 values as a ratio of that of NECA.

Adenosine 2a receptor = biological target: T2, Adenosine 2a receptor (Homo sapiens, UniProt P29274); assay: Agonist activity against adenosine 2a receptor subtype (CHO cells, cAMP response element/SPAP reporter); details: EC50 ratio to NECA; transfected CHO cells, basal cAMP reflected by SPAP
T2 construct: expressed in transfected cells; host or cells: Chinese hamster ovary (CHO) cells, co-transfected with a CRE-SPAP reporter
Description: as §1, §2, §3

Adenosine 1 receptor = biological target: T3, Adenosine 1 receptor (Homo sapiens, UniProt P30542); assay: Agonist activity against adenosine 1 receptor subtype (CHO cells, forskolin-enhanced cAMP, SPAP reporter); details: EC50 ratio to NECA; transfected CHO cells, forskolin-enhanced cAMP reflected by SPAP
T3 construct: expressed in transfected cells; host or cells: Chinese hamster ovary (CHO) cells, co-transfected with a CRE-SPAP reporter
T3 sequence (P30542 1-326): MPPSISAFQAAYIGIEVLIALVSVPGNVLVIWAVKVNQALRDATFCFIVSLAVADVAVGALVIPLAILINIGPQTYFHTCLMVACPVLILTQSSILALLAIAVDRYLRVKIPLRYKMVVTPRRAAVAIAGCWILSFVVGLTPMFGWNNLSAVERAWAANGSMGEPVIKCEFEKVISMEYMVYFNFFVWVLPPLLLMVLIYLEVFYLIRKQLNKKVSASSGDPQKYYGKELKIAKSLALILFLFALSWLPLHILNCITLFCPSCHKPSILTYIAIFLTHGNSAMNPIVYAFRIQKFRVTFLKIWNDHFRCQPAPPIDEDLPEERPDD
Description: as §1, §2, §3

T2 sequence (P29274 whole entry): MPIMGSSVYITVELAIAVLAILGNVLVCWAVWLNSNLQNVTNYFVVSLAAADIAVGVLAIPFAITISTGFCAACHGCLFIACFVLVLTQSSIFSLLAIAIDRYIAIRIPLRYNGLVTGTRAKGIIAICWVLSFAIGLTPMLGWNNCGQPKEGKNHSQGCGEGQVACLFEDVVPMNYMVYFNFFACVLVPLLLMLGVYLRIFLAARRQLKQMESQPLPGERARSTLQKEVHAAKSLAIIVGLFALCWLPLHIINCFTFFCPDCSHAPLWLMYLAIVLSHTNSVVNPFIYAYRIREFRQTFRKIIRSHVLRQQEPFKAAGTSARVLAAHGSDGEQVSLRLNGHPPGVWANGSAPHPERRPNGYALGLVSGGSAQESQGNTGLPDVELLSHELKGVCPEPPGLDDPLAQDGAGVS

SMILES | A3 (EC50 values as a ratio of that of NECA) (Adenosine 3 receptor) | A2a (EC50 values as a ratio of that of NECA) (Adenosine 2a receptor) | A1 (EC50 values as a ratio of that of NECA) (Adenosine 1 receptor)
CCC(CC)Nc1nc(NCCN2CCCCC2)nc2c1ncn2C1OC(c2cc(CO)no2)C(O)C1O.O=CO.O=CO [Example 57, (2R,3R,4S,5S)-2-[6-(1-Ethyl-propylamino)-2-(2-piperidin-1-yl-ethylamino)-purin-9-yl]-5-(3-hydroxymethyl-isoxazol-5-yl)-tetrahydro-furan-3,4-diol diformate] | >525 | 0.79 | 80.76
CCc1cc(C2OC(n3cnc4c(NC(CO)Cc5ccccc5)nc(NCCN)nc43)C(O)C2O)on1 [Example 64, (2R,3R,4S,5S)-2-[2-(2-Amino-ethylamino)-6-(1S-hydroxymethyl-2-phenyl-ethylamino)-purin-9-yl]-5-(3-ethyl-isoxazol-5-yl)-tetrahydro-furan-3,4-diol diformate] | >262 | 16.03 | 44.21
CCc1cc(C2OC(n3cnc4c(NC(CO)Cc5ccccc5)nc(NCCNc5ccccn5)nc43)C(O)C2O)on1 [Example 62, (2S,3S,4R,5R)-2-(3-Ethyl-isoxazol-5-yl)-5-{6-(1S-hydroxymethyl-2-phenyl-ethylamino)-2-[2-(pyridin-2-ylamino)-ethylamino]-purin-9-yl}-tetrahydro-furan-3,4-diol diformate] | >303 | 1.03 | 21.37
CCc1cc([C@H]2O[C@@H](n3cnc4c(NCC(c5ccccc5)c5ccccc5)nc(NCCN5CCCCC5)nc43)[C@H](O)[C@@H]2O)on1.O=CO.O=CO [Example 1, (2R,3R,4S,S)-2-[6-(2,2-Diphenyl-ethylamino)-2-(2-piperidin-1-yl-ethylamino)-purin-9-yl]-5-(3-ethyl-isoxazol-5-yl)-tetrahydro-furan-3,4-diol diformate] | >436 | 0.52 | 288.5
CCc1cc(C2OC(n3cnc4c(NCCC5CCCCC5)nc(NC(CO)Cc5ccccc5)nc43)C(O)C2O)on1 [Example 22, (2R,3R,4S,5S)-2-[6-(2-Cyclohexyl-ethylamino)-2-(1 S-hydroxy-methyl-2-phenyl-ethylamino)-purin-9-yl]-5-(3-ethyl-isoxazol-5-yl)-tetrahydro-furan-3,4-diol formate] | >254 | 9.17 | 8026.2
CCc1cc(C2OC(n3cnc4c(NC5CCS(=O)(=O)CC5)nc(NCCNC(=N)N)nc43)C(O)C2O)on1 (stereo not drawn) [Example 26, N-(2-{6-(1,1-Dioxo-hexahydro-1λ6-thiopyran-4-ylamino)-9-[5S-(3-ethyl-isoxazol-5-yl)-3R ,4S-dihydroxy-tetrahydro-furan-2R-yl]-9H-purin-2-ylamino}-ethyl)-guanidine diformate] | >286 | 6.89 | 273.3
CCCc1cc(C2OC(n3cnc4c(NC(CC)CC)nc(NCCN5CCCCC5)nc43)C(O)C2O)on1.O=CO.O=CO [Example 56, (2R,3R,4S,5S)-2-[6-(1-Ethyl-propylamino)-2-(2-piperidin-yl-ethylamino)-purin-9-yl]-5-(3-propyl-isoxazol-5-yl)-tetrahydro-furan-3,4-diol diformate] | >525 | 5.19 | 101.31
CCc1cc(C2OC(n3cnc4c(NC(CO)C(C)C)nc(NCCN5CCCCC5)nc43)C(O)C2O)on1 [Example 70, (2S,3S,4R,5R)-2-(3-Ethyl-isoxazol-5-yl)-5-[6-(1(1S-hydroxymethyl-2-methyl-propylamino)-2-(2-piperidin-1-yl-ethylamino)-purin-9-yl]-tetrahydro-furan-3,4-diol diformate] | >184 | 27.39 | 149.86
CCc1cc(C2OC(n3cnc4c(NC(CC)CC)nc(NCCN5CCOCC5)nc43)C(O)C2O)on1.O=CO.O=CO [Example 38, (2S,3S,4R,5R)-2-(3Ethyl-isoxazol-5-yl)-5-[6(1-ethyl-propylamino)-2-(2-morpholin-4-yl-ethylamino)-purin-9-yl]-tetrahydro-furan-3,4-diol diformate] | >737 | 5.29 | 44.1
CCc1cc(C2OC(n3cnc4c(NC(CO)C(C)C)nc(NCCN5CCCC5)nc43)C(O)C2O)on1 [Example 69, (2S,3S,4R,5R)-2-(3-Ethyl-isoxazol-5-yl)-5-[6-(1S-hydroxymethyl-2-methyl-propylamino)-2-(2-pyrrolidin-1-yl-ethylamino)-purin-9-yl]-tetrahydro-furan-3,4-diol diformate] | >180 | 23.73 | 298.75
CCc1cc([C@H]2O[C@@H](n3cnc4c(NCC(c5ccccc5)c5ccccc5)nc(NCCO)nc43)[C@H](O)[C@@H]2O)on1.O=CO [Example 4, (2R,3R,4S,5S)-2-[6-(2,2-Diphenyl-ethylamino)-2-(2-hydroxy-ethylamino)-purin-9-yl]-5-(3-ethyl-isoxazol-5-yl)-tetrahydro-furan-3,4-diol formate] | >267 | 0.92 | 109.3
CCc1cc(C2OC(n3cnc4c(NCc5ccccc5)nc(NCCN5CCCCC5)nc43)C(O)C2O)on1.O=CO.O=CO [Example 44, (2R,3R,4S,5S)-2-[6-Benzylamino-2-(2-piperidin-1-yl-ethylamino)-purin-9-yl]-5-(3-ethyl-isoxazol-5-yl)-tetrahydro-furan-3,4-diol diformate] | >221 | 10.3 | 725.4
CCc1cc(C2OC(n3cnc4c(NCCC(C)(C)C)nc(NCCN5CCOCC5)nc43)C(O)C2O)on1 [Example 42, (2R,3R,4S,5S)-2-[6-(3,3-Dimethyl-butylamino)-2-(2-morpholin-4-ethylamino)-purin-9-yl]-5-(3-ethyl-isoxazol-5-yl)-tetrahydro-furan-3,4-diol diformate]] | >395 | 41.06 | 1369.08
CCc1cc(C2OC(n3cnc4c(NCC(c5ccccc5)c5ccccc5)nc(NCCNC(=N)N)nc43)C(O)C2O)on1 (stereo not drawn) [Example 23, N-2-{6-(2,2-Diphenyl-ethylamino)-9-[5S-(3-ethyl-isoxazol-5-yl)-3R,4S-dihydroxy-tetrahydro-furan-2R-yl]-9H-purin-2-ylamino}-ethyl)-guanidine diformate] | >282 | 13.4 | >=3263
CCC(CC)Nc1nc(NCCc2cn(C)cn2)nc2c1ncn2C1OC(c2cc(C=NO)no2)C(O)C1O (stereo not drawn) [Example 50, 5-(5R-{6-Ethyl-propylamino)-2-[2(1-methyl-1H-imidazol-4-yl)-ethylamino]-purin-9-yl}-3S,4R-dihydroxy-tetrahydro-furan-2S-yl)-isoxazole-3-carbaldehyde oxime diformate] | >113 | 7.26 | >6188
CCC(CC)Nc1nc(NCCN2CCCCC2)nc2c1ncn2[C@@H]1O[C@H](c2cc(C(C)O)no2)[C@@H](O)[C@H]1O.O=CO.O=CO (stereo partly drawn) [Example 54, (2R,3R,4S,5S)-2-[6-(1-Ethyl-propylamino)-2-(2-piperidin-1-yl-ethylamino)-purin-9-yl]-5-[3-(1-hydroxy-ethyl)-isoxazol-5-yl]-tetrahydro-furan-3,4-diol diformate] | >350 | 0.066 | 10.18
